The record followed here is patent publication US20070037831A1, “Methods of using PDE 5 inhibitors for the treatment of congestive heart failure” (priority 2004, published 2007).

In the assay the target is PDE V (Homo sapiens, UniProt O76074). The assay can be described thus: PDE V inhibition (PDE V IC50). Format: biochemical.

The structures appear in SMILES notation.

Take `Cn1c(=O)c2c(nc(NC3CCC3)n2Cc2ccc(O)cc2)n(C)c1=O` [Compound 66]: the IC50 is 5 to 10 nM. For `COc1ccc(Cn2c(N[C@@H]3CCC[C@@H]3O)nc3c2c(=O)n(C)c(=O)n3CC(C)C)cc1` [Compound 17], the half-maximal inhibitory concentration (IC50) lay in the range of 15 to 100 nM. With `Cn1c(=O)c2c(nc(NC3CCCCC3)n2Cc2ccccc2)n(C)c1=O` [Compound 16] the figure was 15 to 100 nM.

Turning to `CCn1c(=O)c2c(nc(NC3CCCCC3)n2Cc2ccccc2)n(CC)c1=O` [Compound 29], the IC50 lay within 10 to 15 nM. The compound `CCn1c(=O)c2c(nc(N[C@@H]3CCC[C@H]3O)n2Cc2ccc(O)c(Cl)c2)n(CCO)c1=O` [Compound 115] registered an IC50 of 5 to 10 nM. The result for `Cn1c(=O)c2c(nc(NC3CCCCCC3)n2Cc2ccc(O)cc2)n(C)c1=O` [Compound 69] reads 15 to 100 nM; that for `COc1ccc(Cn2c(=O)c3c(nc(NC4CCCCC4)n3Cc3ccc(OC)cc3)n(C)c2=O)cc1` [Compound 21], 5 to 10 nM; that for `CCCn1c(=O)n(CC)c(=O)c2c1nc(NC1CCCCC1)n2Cc1ccc(O)c(C)c1` [Compound 178], at most 5 nM.

As to `CCn1c(=O)c2c(nc(NC3CCCCC3)n2Cc2ccc(S(N)(=O)=O)c(Cl)c2)n(CCO)c1=O` [Compound 183], the IC50 lay in the range of 5 to 10 nM. The result for `CCCn1c(=O)n(CC)c(=O)c2c1nc(NC1CCCCC1)n2Cc1ccccc1F` [Compound 173] reads 15 to 100 nM; that for `COc1ccc(Cn2c(N[C@@H]3CCc4ccccc43)nc3c2c(=O)n(C)c(=O)n3C)cc1` [Compound 85], 15 to 100 nM; that for `CCn1c(=O)c2c(nc(NC3(CO)CC=CC3)n2Cc2ccccc2)n(CC(C)C)c1=O` [Compound 57], 15 to 100 nM. With `CCn1c(=O)c2c(nc(NC3CCCCC3)n2Cc2ccc(OC)c(C)c2)n(CC)c1=O` [Compound 166] the figure was 15 to 100 nM. With `CCn1c(=O)c2c(nc(NC3CCCCC3)n2Cc2cc3c(cc2Cl)OCO3)n(CCO)c1=O` [Compound 108] the figure was 10 to 15 nM.

Take `COc1ccc(Cn2c(=O)c3c(nc(NC4(CO)CC=CC4)n3Cc3ccc(OC)cc3)n(C)c2=O)cc1` [Compound 67]: the IC50 is at most 5 nM. With `Cn1c(=O)c2c(nc(NC3CCCCC3)n2Cc2cccc(F)c2)n(C)c1=O` [Compound 137] the figure was 15 to 100 nM; with `CCn1c(=O)c2c(nc(NC3CCCCC3)n2Cc2ccc(S(N)(=O)=O)cc2)n(CCO)c1=O` [Compound 182], 15 to 100 nM; with `CCn1c(=O)c2c(nc(NC3CCCCC3)n2Cc2ccccc2)n(CC(C)C)c1=O` [Compound 56], 15 to 100 nM. The result for `CCCn1c(=O)n(CC)c(=O)c2c1nc(NC1CCCCC1)n2Cc1cccc(O)c1` [Compound 177] reads at most 5 nM; that for `CCn1c(=O)c2c(nc(NC3CCCCC3)n2Cc2cccc(Cl)c2)n(CC)c1=O` [Compound 120], 15 to 100 nM. The result for `CCn1c(=O)c2c(nc(NC3CCCCC3)n2Cc2ccc(S(N)(=O)=O)c(Br)c2)n(CC)c1=O` [Compound 180] reads 5 to 10 nM. `Cn1c(=O)[nH]c(=O)c2c1nc(NC1CCCC1)n2Cc1ccc(O)cc1` [Compound 68] returned an IC50 of 5 to 10 nM. With `Cc1ccc(Cn2c(NC3CCCCC3)nc3c2c(=O)n(C)c(=O)n3C)cc1` [Compound 132] the figure was 5 to 10 nM; with `COc1ccc(Cn2c(NC3CCCCC3)nc3c2c(=O)n(C)c(=O)n3C)cc1C` [Compound 144], 10 to 15 nM. The result for `CCn1c(=O)c2c(nc(NC3(CO)CC=CC3)n2Cc2ccc(OC)cc2)n(C)c1=O` [Compound 25] reads 15 to 100 nM; that for `Cn1c(=O)c2c(nc(NC3CCCCC3)n2Cc2ccc(O)c(Cl)c2)n(C)c1=O` [Compound 161], 10 to 15 nM. With `COc1ccc(Cn2c(NC3CCC3)nc3c2c(=O)n(C)c(=O)n3C)cc1` [Compound 42] the figure was 15 to 100 nM; with `Cn1c(=O)c2c(nc(NC3CCCC3)n2Cc2ccc(O)cc2)n(C)c1=O` [Compound 36], 5 to 10 nM; with `Cn1c(=O)c2c(nc(NC3CCCCC3)n2Cc2cc3c(cc2Cl)OCO3)n(C)c1=O` [Compound 160], 10 to 15 nM. Compound `CCCn1c(=O)n(CC)c(=O)c2c1nc(NC1CCCCC1)n2Cc1ccc2c(c1)OCO2` [Compound 175] came in with an IC50 of 5 to 10 nM.

With `CCn1c(=O)c2c(nc(NC3CCCCC3)n2Cc2ccc(OC)cc2)n(C)c1=O` [Compound 23], the IC50 lay in the range of 10 to 15 nM. With `CCn1c(=O)c2c(nc(NC3CCCCC3)n2Cc2ccc(OC(C)=O)cc2)n(CC)c1=O` [Compound 89] the figure was 5 to 10 nM; with `CCn1c(=O)c2c(nc(NC3CCCC3O)n2Cc2ccccc2)n(CC(C)C)c1=O` (stereo not shown) [Compound 58], 15 to 100 nM. With `Cn1c(=O)c2c(nc(NC3CCCC3)n2Cc2ccccc2)n(C)c1=O` [Compound 15] the figure was 15 to 100 nM. The result for `COc1ccc(Cn2c(NC3CCCC3)nc3c2c(=O)n(C)c(=O)n3CC(C)C)cc1` [Compound 30] reads 15 to 100 nM. As for `CCn1c(=O)c2c(nc(NC3CCCC3)n2Cc2ccccc2)n(CC(C)C)c1=O` [Compound 55], the IC50 lay within 15 to 100 nM.

In turn, `CCCn1c(=O)n(CC)c(=O)c2c1nc(NC1CCCCC1)n2Cc1ccc(OC)c(C)c1` [Compound 176] registered an IC50 of 15 to 100 nM. The result for `CCn1c(=O)c2c(nc(N[C@@H]3CCC[C@H]3O)n2Cc2cc(Br)c3c(c2)CCO3)n(CCO)c1=O` [Compound 128] reads 15 to 100 nM; that for `CCn1c(=O)c2c(nc(NC3CCCCC3)n2Cc2ccc(O)cc2)n(CC(C)C)c1=O` [Compound 65], at most 5 nM; that for `CCn1c(=O)c2c(nc(NC3CCCC3)n2Cc2ccc(O)cc2)n(CC)c1=O` [Compound 63], at most 5 nM.

`CCn1c(=O)[nH]c2nc(NC3CCCCC3)n(Cc3ccc(OC)cc3)c2c1=O` [Compound 92] had an IC50 of 15 to 100 nM.

Turning to `COc1ccc(Cn2c(=O)c3c(nc(NC4CCCC4)n3Cc3ccc(OC)cc3)n(C)c2=O)cc1` [Compound 22], the IC50 fell in the range of 5 to 10 nM. The result for `CCn1c(=O)c2c(nc(NC3CCCC3)n2Cc2ccc(OC)cc2)n(CC(C)C)c1=O` [Compound 38] reads 15 to 100 nM; that for `COc1ccc(Cn2c(NC3CCCC3)nc3c2c(=O)n(C)c(=O)n3C)cc1` [Compound 32], 15 to 100 nM; that for `CCn1c(=O)c2c(nc(NC3CCSCC3)n2Cc2ccc(OC)c(Cl)c2)n(CC)c1=O` [Compound 197], at most 5 nM. Compound `CCn1c(=O)c2c(nc(NC3CCSCC3)n2Cc2ccc(OC)c(Br)c2)n(CC)c1=O` [Compound 198] gave an IC50 of at most 5 nM.

In the case of `CCn1c(=O)c2c(nc(NC3CCC(F)(F)CC3)n2Cc2ccc(OC)c(Br)c2)n(CC)c1=O` [Compound 199], the IC50 lay within 5 to 10 nM. With `Cn1c(=O)[nH]c(=O)c2c1nc(NC1CCCCC1)n2Cc1ccc(O)cc1` [Compound 71] the figure was 15 to 100 nM; with `CCCn1c(=O)n(CC)c(=O)c2c1nc(NC1CCCCC1)n2Cc1ccc(O)c(Cl)c1` [Compound 172], 5 to 10 nM; with `CCCn1c(=O)n(CC)c(=O)c2c1nc(NC1CCCCC1)n2Cc1ccc(OC)c(Cl)c1` [Compound 171], 5 to 10 nM. `CCn1c(=O)c2c(nc(NC3CCCCC3)n2Cc2ccc(S(N)(=O)=O)c(Br)c2)n(CCO)c1=O` [Compound 184] gave an IC50 of 15 to 100 nM.

The compound `CCn1c(=O)c2c(nc(NC3CCCCC3)n2Cc2ccc(OC)c(C)c2)n(CCO)c1=O` [Compound 110] displayed an IC50 of 5 to 10 nM. The result for `COc1ccc(Cn2c(NC3CCCCC3)nc3c2c(=O)n(C)c(=O)n3CC(C)C)cc1` [Compound 31] reads 15 to 100 nM. With `COc1ccc(Cn2c(NC3CCCCC3)nc3c2c(=O)n(C)c(=O)n3C)cc1Cl` [Compound 159] the figure was 5 to 10 nM; with `CCn1c(=O)c2c(nc(N[C@@H]3CCC[C@H]3O)n2Cc2ccc(OC)c(Br)c2)n(CCO)c1=O` [Compound 114], at most 5 nM; with `CCn1c(=O)c2c(nc(NC3CCS(=O)(=O)CC3)n2Cc2ccc(OC)c(Cl)c2)n(CC)c1=O` [Compound 193], 15 to 100 nM. The compound `CCn1c(=O)c2c(nc(N[C@@H]3CCC[C@@H]3O)n2Cc2ccccc2)n(CC)c1=O` [Compound 14] registered a concentration for half-maximal inhibition (IC50) of 15 to 100 nM.

`Cn1c(=O)c2c(nc(NC3CC4CCC3C4)n2Cc2ccc(O)cc2)n(C)c1=O` (stereo not shown) [Compound 77] returned an IC50 of 15 to 100 nM. With `Cn1c(=O)c2c(nc(NC3CCCCC3)n2Cc2ccccc2F)n(C)c1=O` [Compound 136] the figure was 10 to 15 nM; with `CCn1c(=O)c2c(nc(N[C@@H]3CCCC[C@H]3O)n2Cc2ccc(OC)c(Br)c2)n(CCO)c1=O` [Compound 185], 15 to 100 nM. With `CCn1c(=O)c2c(nc(NC3CCCCC3)n2Cc2ccc(O)cc2)n(CC)c1=O` [Compound 64] the figure was at most 5 nM; with `CCn1c(=O)c2c(nc(NC3CCCC3)n2Cc2ccc(O)cc2)n(CC(C)C)c1=O` [Compound 59], 5 to 10 nM.

In the case of `COc1ccc(Cn2c(NC3CCCCC3)nc3c2c(=O)[nH]c(=O)n3C)cc1` [Compound 70], the IC50 was in the range of 15 to 100 nM. With `CCn1c(=O)c2c(nc(NC3CCCCC3)n2Cc2ccc(C(=O)O)cc2)n(CC)c1=O` [Compound 98] the figure was 15 to 100 nM; with `CCn1c(=O)c2c(nc(N[C@@H]3CCC[C@H]3O)n2Cc2ccc(S(N)(=O)=O)c(Cl)c2)n(CC)c1=O` [Compound 181], 15 to 100 nM; with `CCn1c(=O)c2c(nc(NC3CCCC3)n2Cc2ccc(OC)cc2)n(CC)c1=O` [Compound 60], at most 5 nM. With `CCn1c(=O)c2c(nc(NC3CCCCC3)n2Cc2ccccc2)n(CCO)c1=O` [Compound 101] the figure was 15 to 100 nM.

As to `CCCn1c(=O)n(CC)c(=O)c2c1nc(NC1CCCCC1)n2Cc1ccc(S(C)(=O)=O)cc1` [Compound 121], the IC50 fell in the range of 15 to 100 nM. The result for `CCn1c(=O)c2c(nc(NC3(CO)CCCC3)n2Cc2ccc(OC)cc2)n(CC(C)C)c1=O` [Compound 41] reads 15 to 100 nM. With `COc1ccc(Cn2c(NC3(CO)CCCC3)nc3c2c(=O)n(C)c(=O)n3CC(C)C)cc1` [Compound 18] the figure was 15 to 100 nM; with `CCn1c(=O)[nH]c2nc(NC3CCCC3)n(Cc3ccc(O)cc3)c2c1=O` [Compound 95], 5 to 10 nM; with `COc1ccc(Cn2c(NC3CCCCCC3)nc3c2c(=O)n(C)c(=O)n3C)cc1` [Compound 43], 15 to 100 nM. The result for `CCn1c(=O)c2c(nc(NC3CCCCC3)n2Cc2ccccc2F)n(CC)c1=O` [Compound 165] reads 15 to 100 nM.

Usually IC50 stands for the concentration at which inhibition is half-maximal.
